Patent US12084472B2 (Ardelyx, Inc., priority 2015, dated 2024)
Structures can show the parent of a compound that is named as a salt.

Molecular target: T1, human TGR5 (Homo sapiens, UniProt Q8TDU6)
T1 construct: expressed in transfected cells; host or cells: HEK293
T1 sequence (Q8TDU6 1-330): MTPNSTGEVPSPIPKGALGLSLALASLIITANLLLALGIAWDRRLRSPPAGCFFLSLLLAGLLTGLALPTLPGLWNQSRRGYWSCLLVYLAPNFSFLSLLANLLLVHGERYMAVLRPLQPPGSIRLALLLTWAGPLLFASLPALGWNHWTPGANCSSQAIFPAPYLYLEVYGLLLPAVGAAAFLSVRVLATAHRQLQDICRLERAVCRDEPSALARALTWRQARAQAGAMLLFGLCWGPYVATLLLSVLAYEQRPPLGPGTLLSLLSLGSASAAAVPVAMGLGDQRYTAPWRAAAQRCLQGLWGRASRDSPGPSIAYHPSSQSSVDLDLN
Assay: Cell-based TGR5 assay (cAMP generation, HTRF)
Details: HEK293 cells stably transfected with human TGR5; cAMP by HTRF; 30 minutes at 37° C.; read-out: pEC50 Human TGR5 (converted)
In short: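 Read-out was HTRF detection of cAMP, converted to concentration via a standard curve and fitted (3-parameter logistic) for pEC50 and maximal response. Agonist stimulation used HEK293 cells stably transfected with human TGR5, incubated 30 min at 37° C in IBMX-containing buffer at 0.05 nM to 10 μM compound.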

Compound	EC50 [nM]
CC(CCCC(=O)N(CCS(=O)(=O)N(C)C)C[C@H](O)[C@@H](O)[C@H](O)[C@H](O)CO)c1ccc(Cl)c(CNC2(c3cnccc3-c3ccccc3OC3CC3)CC2)c1 (stereo partly drawn) [Compound I-348, 5-{4-chloro-3-[({1-[4-(2-cyclopropoxyphenyl)pyridin-3-yl]cyclopropyl}amino)methyl]phenyl}-N-[2-(dimethylsulfamoyl)ethyl]-N-[(2S,3R,4R,5R)-2,3,4,5,6-pentahydroxyhexyl]hexanamide]	< 100
CC(CCCCC(=O)N(C)C[C@H](O)[C@@H](O)[C@H](O)[C@H](O)CO)c1ccc(Cl)c(CNC2(c3cnccc3-c3ccccc3OC3CC3)CC2)c1 (stereo partly drawn) [Compound I-330, 6-{4-chloro-3-[({1-[4-(2-cyclopropoxyphenyl)pyridin-3-yl]cyclopropyl}amino)methyl]phenyl}-N-methyl-N-[(2S,3R,4R,5R)-2,3,4,5,6-pentahydroxyhexyl]heptanamide]	< 100
FC(F)(F)c1ccc(Cl)c(CNC2(c3cnccc3-c3ccccc3OC3CC3)CC2)c1 [Compound I-32, N-{[2-chloro-5-(trifluoromethyl)phenyl]methyl}-1-[4-(2-cyclopropoxyphenyl)pyridin-3-yl]cyclopropan-1-amine]	< 100
CC(CCCCN)c1ccc(Cl)c(CNC2(c3cnccc3-c3ccccc3OC3CC3)CC2)c1 (stereo not drawn) [Compound I-242, N-[[5-(6-aminohexan-2-yl)-2-chlorophenyl]methyl]-1-[4-(2-cyclopropoxyphenyl)pyridin-3-yl]cyclopropan-1-amine]	< 100
Cc1cc(CNC2(c3cnccc3-c3ccccc3OC3CC3)CC2)c(Cl)cc1CCCCC(=O)N(C)C[C@H](O)[C@@H](O)[C@H](O)[C@H](O)CO [Compound I-143, 5-{5-chloro-4-[({1-[4-(2-cyclopropoxyphenyl)pyridin-3-yl]cyclopropyl}amino)methyl]-2-methylphenyl}-N-methyl-N-[(2S,3R,4R,5R)-2,3,4,5,6-pentahydroxyhexyl]pentanamide]	< 100
O=C(NC[C@H](O)[C@@H](O)[C@H](O)[C@H](O)CO)N(CCCCc1cc(Cl)c(COC2(c3cnccc3-c3ccccc3OC3CC3)CC2)cc1Cl)CCOCCO [Compound I-86, 1-(4-(2,5-dichloro-4-((1-(4-(2-cyclopropoxyphenyl)pyridin-3-yl)cyclopropoxy)methyl)phenyl)butyl)-1-(2-(2-hydroxyethoxy)ethyl)-3-((2S,3R,4R,5R)-2,3,4,5,6-pentahydroxyhexyl)urea]	< 100
CN(C[C@H](O)[C@@H](O)[C@H](O)[C@H](O)CO)C(=O)CCC[S+]([O-])c1ccc(Cl)c(CNC2(c3cnccc3-c3ccccc3OC3CC3)CC2)c1 (stereo partly drawn) [Compound I-647, 4-{4-chloro-3-[({1-[4-(2-cyclopropoxyphenyl)pyridin-3-yl]cyclopropyl}amino)methyl]benzenesulfinyl}-N-methyl-N-[(2S,3R,4R,5R)-2,3,4,5,6-pentahydroxyhexyl]butanamide]	126 to 1000
CN(C[C@H](O)[C@@H](O)[C@H](O)[C@H](O)CO)C(=O)CC1(CSc2ccc(Cl)c(CNC3(c4cnccc4-c4ccccc4OC4CC4)CC3)c2)CC1 [Compound I-681, 2-{1-[({4-chloro-3-[({1-[4-(2-cyclopropoxyphenyl)pyridin-3-yl]cyclopropyl}amino)methyl]phenyl}sulfanyl)methyl]cyclopropyl}-N-methyl-N-[(2S,3R,4R,5R)-2,3,4,5,6-pentahydroxyhexyl]acetamide]	< 100
O=C(O)CNC(=O)N(CCCCc1cc(Cl)c(COC2(c3cnccc3-c3ccccc3OC3CC3)CC2)cc1Cl)C[C@H](O)[C@@H](O)[C@H](O)[C@H](O)CO (stereo in doubt) [Compound I-197, 2-[({4-[2,5-dichloro-4-({1-[4-(2-cyclopropoxyphenyl)pyridin-3-yl]cyclopropoxy}methyl)phenyl]butyl}[(2S,3R,4R,5R)-2,3,4,5,6-pentahydroxyhexyl]carbamoyl)amino]acetic acid]	126 to 1000
Cc1ccc(SCCCN(C(=O)[C@@H](O)[C@@H](O)[C@H](O)[C@@H](O)CO)C2CCOCC2)cc1CNC1(c2cnccc2-c2ccccc2OC2CC2)CC1 [Compound I-547, (2S,3S,4R,5S)-N-[3-({3-[({1-[4-(2-cyclopropoxyphenyl)pyridin-3-yl]cyclopropyl}amino)methyl]-4-methylphenyl}sulfanyl)propyl]-2,3,4,5,6-pentahydroxy-N-(oxan-4-yl)hexanamide]	1260 to 10000
CS(=O)(=O)CCN(CCCCNS(=O)(=O)c1ccc(Cl)c(COC2(c3cnccc3-c3ccccc3OC3CC3)CC2)c1)C(=O)[C@@H](O)[C@@H](O)[C@H](O)[C@@H](O)CO [Compound I-457, (2S,3S,4R,5S)-N-{4-[4-chloro-3-({1-[4-(2-cyclopropoxyphenyl)pyridin-3-yl]cyclopropoxy}methyl)benzenesulfonamido]butyl}-2,3,4,5,6-pentahydroxy-N-(2-methanesulfonylethyl) hexanamide]	< 100
CC(=O)NCCCCN(CCCC(C)c1ccc(Cl)c(CNC2(c3cnccc3-c3ccccc3OC3CC3)CC2)c1)C(=O)[C@@H](O)[C@@H](O)[C@H](O)[C@@H](O)CO (stereo partly drawn) [Compound I-290, (2S,3S,4R,5S)-N-(4-{4-chloro-3-[({1-[4-(2-cyclopropoxyphenyl)pyridin-3-yl]cyclopropyl}amino)methyl]phenyl}pentyl)-N-(4-acetamidobutyl)-2,3,4,5,6-pentahydroxyhexanamide]	< 100
Cc1cc(COC2(c3cnccc3-c3ccccc3OC3CC3)CC2)c(Cl)cc1CCCCN [Compound I-166, 4-[5-chloro-4-({1-[4-(2-cyclopropoxyphenyl)pyridin-3-yl]cyclopropoxy}methyl)-2-methylphenyl]butan-1-amine]	< 100
Fc1ccc(-c2ccncc2C2(NCc3cc(Cl)ccc3Cl)CC2)c(OC2CC2)c1 [Compound I-18, 1-[4-(2-cyclopropoxy-4-fluorophenyl)pyridin-3-yl]-N-[(2,5-dichlorophenyl)methyl]cyclopropan-1-amine]	< 100
O=C([C@@H](O)[C@@H](O)[C@H](O)[C@@H](O)CO)N(CCCCc1cc(Cl)c(COC2(c3cnccc3-c3ccccc3OC3CC3)CC2)cc1Cl)C1CCOCC1 [Compound I-216, (2S,3S,4R,5S)-N-{4-[2,5-dichloro-4-({1-[4-(2-cyclopropoxyphenyl)pyridin-3-yl]cyclopropoxy}methyl)phenyl]butyl}-2,3,4,5,6-pentahydroxy-N-(oxan-4-yl)hexanamide]	126 to 1000

Continued, values first:

EC50 [nM]	Compound
126 to 1000	CN(CCCCNC(=O)N[C@@H](CO)[C@@H](O)[C@H](O)[C@H](O)CO)S(=O)(=O)c1ccc(C(F)(F)F)c(CNC2(c3cnccc3-c3ccccc3OC3CC3)CC2)c1 [Compound I-470, 1-(4-{N-methyl3-[({1-[4-(2-cyclopropoxyphenyl)pyridin-3-yl]cyclopropyl}amino)methyl]-4-(trifluoromethyl)benzenesulfonamido}butyl)-3-[(2S,3R,4S,5R)-1,3,4,5,6-pentahydroxyhexan-2-yl]urea]
< 100	Cc1cc(COC2(c3cnccc3-c3ccccc3OC3CC3)CC2)c(Cl)cc1CCCCNC(=O)N(C)C[C@H](O)[C@@H](O)[C@H](O)[C@H](O)CO [Compound I-167, 1-{4-[5-chloro-4-({1-[4-(2-cyclopropoxyphenyl)pyridin-3-yl]cyclopropoxy}methyl)-2-methylphenyl]butyl}-3-methyl-3-[(2S,3R,4R,5R)-2,3,4,5,6-pentahydroxyhexyl]urea]
< 100	O=C(NC[C@H](O)[C@@H](O)[C@H](O)[C@H](O)CO)N[C@H]1CC[C@@H](NS(=O)(=O)c2ccc(Cl)c(COC3(c4cnccc4-c4ccccc4OC4CC4)CC3)c2)CC1 [Compound I-419, 3-[(2S,3R,4R,5R)-2,3,4,5,6-pentahydroxyhexyl]-1-[(1s,4s)-4-[4-chloro-3-({1-[4-(2-cyclopropoxyphenyl)pyridin-3-yl]cyclopropoxy}methyl)benzenesulfonamido]cyclohexyl]urea]
126 to 1000	Cc1ccc(SCCCCN(C(=O)[C@@H](O)[C@@H](O)[C@H](O)[C@@H](O)CO)C2CCOCC2)cc1COC1(c2cnccc2-c2ccccc2OC2CC2)CC1 [Compound I-562, (2S,3S,4R,5S)-N-(4-{[3-({1-[4-(2-cyclopropoxyphenyl)pyridin-3-yl]cyclopropoxy}methyl)-4-methylphenyl]sulfanyl}butyl)-2,3,4,5,6-pentahydroxy-N-(oxan-4-yl)hexanamide]
< 100	O=C(NCCCCCc1cc(Cl)c(CNC2(c3cnccc3-c3ccccc3OC3CC3)CC2)cc1Cl)NC[C@H](O)[C@@H](O)[C@H](O)[C@H](O)CO [Compound I-60, 1-(5-[2,5-dichloro-4-[([1-[4-(2-cyclopropoxyphenyl)pyridin-3-yl]cyclopropyl]amino)methyl]phenyl]pentyl)-3-[(2S,3R,4R,5R)-2,3,4,5,6-pentahydroxyhexyl]urea hydrochloride]
1260 to 10000	CC(C)c1ccc(SCCCC(=O)N(C)C[C@H](O)[C@@H](O)[C@H](O)[C@H](O)CO)cc1COC1(c2cnccc2-c2ccccc2OC2CC2)CC1 [Compound I-620, 4-{[3-({1-[4-(2-cyclopropoxyphenyl)pyridin-3-yl]cyclopropoxy}methyl)-4-(propan-2-yl)phenyl]sulfanyl}-N-methyl-N-[(2S,3R,4R,5R)-2,3,4,5,6-pentahydroxyhexyl]butanamide]
